{"source": "patent US10487112B2", "about": "“Pediococcus acidilactici derived antimicrobial hexapeptide and preparation method thereof” (Jiangnan University, priority 2016, dated 2019)", "key": {"[1]": {"assay": "Antioxidant capability, clearing superoxide anions", "text": "(§1) The feed contains a certain quantity of unsaturated fat, fatty acid, lipid-soluble vitamin, carotenoid and other lipid-soluble substances, which are easily oxidized in a storage process of the feed, and particularly fat and fatty acid can be oxidized to result in rancidity to generate different compounds such as aldehyde, alcohol, fat and acid which may generate various peculiar smells to seriously affect the palatability of the feed, and some compounds can generate adverse effects for the animals due to certain toxicity. The antioxidant capability of the lactein R16 to hydrogen peroxide, hydroxyl radicals, DPPH.radicals and superoxide anions is shown as FIG. 5."}, "[2]": {"tested_on": "Pediococcus pentosaceus", "assay": "Influences on probiotics, viable count", "assay_type": "cell-based", "details": "MRS medium with 6.4 mg·mL^−1, 37° C., 24 h", "procedure": "(§2) Each of probiotics is subjected to two-stage activation, is inoculated into an MRS culture medium containing 6.4 mg·mL^−1 of antimicrobial active substances according to the inoculation amount of 1% and is cultured at the constant temperature of 37° C. for 24 h in contrast with the probiotics inoculated into the MRS culture medium. Coated plate counting is performed by using a viable count method. The result is shown as FIG. 4.\n(§3) A microecological preparation used as one of green feed additives is widely applied to the feed, wherein a composite microecological preparation prepared from Saccharomycetes, Lactic Acid Bacteria and Bacillus is more common, not only can degrade and soften crude fibers and increase the content of proteins, but also can improve the palatability of the feed, regulate the intestinal microecological balance of the animals and promote digestive absorption and growth. Saccharomyces cerevisiae, Pediococcus pentosaceus, Enterococcus faecium, Lactobacillus plantarum and Bacillus subtilis are selected as a study object to study the influences of the lactein R16 on Saccharomyces cerevisiae, Pediococcus pentosaceus, Enterococcus faecium, Lactobacillus plantarum and Bacillus subtilis, and the result is shown as FIG. 4."}, "[3]": {"tested_on": "Enterococcus faecium", "assay": "Influences on probiotics, viable count", "assay_type": "cell-based", "details": "MRS medium with 6.4 mg·mL^−1, 37° C.", "procedure": "as §2, §3"}, "[4]": {"tested_on": "Bacillus subtilis", "assay": "Influences on probiotics, viable count", "assay_type": "cell-based", "details": "MRS medium with 6.4 mg·mL^−1, 37° C.", "procedure": "as §2, §3"}, "[5]": {"tested_on": "Saccharomyces cerevisiae", "assay": "Influences on probiotics, viable count", "assay_type": "cell-based", "details": "MRS medium with 6.4 mg·mL^−1, 37° C., 24 h", "procedure": "as §2, §3"}, "[6]": {"tested_on": "Lactobacillus plantarum", "assay": "Influences on probiotics, viable count", "assay_type": "cell-based", "details": "MRS medium with 6.4 mg·mL^−1, 37° C., 24 h", "procedure": "as §2, §3"}, "[7]": {"tested_on": "Escherichia coli ATCC 25922", "assay": "Antimicrobial spectrum, oxford-cup method", "assay_type": "cell-based", "parameters": "key: “+++” represents for strong inhibition; “++” represents for relatively strong inhibition; “+” represents for inhibition; “−” represents for no inhibition", "details": "100 mg·mL^−1, oxford-cup", "procedure": "(§4) 8 parts of purified active substance lactein R16 with the concentration of 100 mg·mL^−1 is selected, and an inhibiting effect of the lactein R16 on Escherichia coli, Listeria monocytogenes and Staphylococcus aureus is detected by using an oxford-cup method."}, "[8]": {"tested_on": "Escherichia coli", "assay": "Thermal stability of lactein R16 (antimicrobial experiment after heat treatment)", "assay_type": "physicochemical", "procedure": "8 parts of purified active substance lactein R16 with the concentration of 100 mg·mL^−1 is selected and is respectively treated at 40° C., 50° C., 60° C., 70° C., 80° C., 90° C. and 100° C. for 30 min and is subjected to high-pressure sterilization at 121° C. for 15 min, and an antimicrobial experiment is performed to observe the inhibition of the lactein R16 to Escherichia coli. The result is shown as FIG. 3.\nThe antimicrobial activity of the lactein R16 is lost by 59.98% after the lactein R16 is treated at 121° C. for 15 min."}, "[9]": {"tested_on": "Escherichia coli", "assay": "Stability of lactein R16 in pH (antimicrobial experiment after pH treatment)", "assay_type": "physicochemical", "procedure": "10 parts of purified active substance lactein R16 with the concentration of 100 mg·mL^−1 is selected, the pH of the lactein R16 is respectively regulated to be 1.0-10.0 by using 1.0 mol·L^−1 NaOH and 1.0 mol·L^−1 HCl, the lactein R16 is treated in a 37° C. water bath kettle for 2 h, then, the pH of the lactein R16 is regulated to be 4.5, and an antimicrobial experiment is performed to observe the inhibition of the lactein R16 to Escherichia coli. The result is shown as FIG. 2.\nThe antimicrobial activity of the lactein R16 is reduced step by step when the pH is 6.0-8.0, the reduction tendency is slow, and the residual activity is maintained at about 75%, which proves that the stability of the lactein R16 is reduced to a certain extent under such pH condition, but the pH has little influences on the stability of the lactein R16."}, "[10]": {"assay": "Antioxidant capability, clearing DPPH radicals", "text": "as §1"}, "[11]": {"tested_on": "Escherichia coli K99", "assay": "Antimicrobial spectrum, oxford-cup method", "assay_type": "cell-based", "parameters": "key to Antimicrobial level: “+++” represents for strong inhibition; “++” represents for relatively strong inhibition; “+” represents for inhibition; “−” represents for no inhibition", "details": "100 mg·mL^−1, oxford-cup", "procedure": "as §4"}, "[12]": {"tested_on": "Escherichia coli JM109", "assay": "Antimicrobial spectrum, oxford-cup method", "assay_type": "cell-based", "parameters": "key to Antimicrobial level: “+++” represents for strong inhibition; “++” represents for relatively strong inhibition; “+” represents for inhibition; “−” represents for no inhibition", "details": "100 mg·mL^−1, oxford-cup", "procedure": "as §4"}, "[13]": {"tested_on": "Listeria monocytogenes CMCC(B)54002", "assay": "Antimicrobial spectrum, oxford-cup method", "assay_type": "cell-based", "parameters": "key to Antimicrobial level: “+++” represents for strong inhibition; “++” represents for relatively strong inhibition; “+” represents for inhibition; “−” represents for no inhibition", "details": "100 mg·mL^−1, oxford-cup", "procedure": "as §4"}, "[14]": {"tested_on": "Staphylococcus aureus ATCC 6538", "assay": "Antimicrobial spectrum, oxford-cup method", "assay_type": "cell-based", "parameters": "key to Antimicrobial level: “+++” represents for strong inhibition; “++” represents for relatively strong inhibition; “+” represents for inhibition; “−” represents for no inhibition", "details": "100 mg·mL^−1, oxford-cup", "procedure": "as §4"}, "[15]": {"tested_on": "Listeria monocytogenes CMCC(B)54002", "assay": "Minimum inhibitory concentration (MIC) method", "assay_type": "cell-based", "details": "LB medium, 37° C., 18-24 h", "procedure": "(§5) The antimicrobial activity is detected by adopting a minimum inhibitory concentration (MIC) method, and the operation is as follows:\n(§6) (a) inoculating the bacteria into an LB liquid culture medium according to the inoculation amount of 1%, and carrying out shaking culture over the night at 37° C. and 200r·min^−1;\n(§7) (b) inoculating the culture solution into 20 mL of the LB liquid culture medium according to the inoculation amount of 1%, and carrying out shaking culture at 37° C. and 200r·min′ until the OD600 is equal to about 0.5; […]\n(§8) (e) adding 450 μL of the prepared bacterial suspension into an aseptic tissue culture plate, and then, respectively adding 50 μL of antimicrobial active substance diluents with corresponding concentrations to ensure that the concentrations of to-be-measured antimicrobial active substances are respectively 25.6, 12.8, 6.4, 3.2, 1.6, 0.8, 0.4, 0.2 and 0.1 mg·mL^−1; and carrying out culture in a 37° C. constant-temperature incubator for 18-24 h by taking 500 μL of the bacterial suspension as a positive control and 500 μL of the LB liquid culture medium as a negative control; and […]"}, "[16]": {"assay": "Antioxidant capability, clearing hydroxyl radicals", "text": "as §1"}, "[17]": {"tested_on": "Staphylococcus aureus ATCC 6538", "assay_type": "cell-based", "procedure": "as §5, §6, §7, §8"}, "[18]": {"tested_on": "Escherichia coli in the soybean meal", "assay": "Inhibition of Escherichia coli in fermented soybean meal", "assay_type": "cell-based", "details": "48 h; for removal rate: 37° C.", "procedure": "(a) crushing soybean meal by using a blade crusher, adding 4 parts (the weight of each part is 40 g) of soybean meal with the serial numbers of group 5, group 6, group 7 and group 8 into a 500 mL fermentation flask, and carrying out sterilization at 105° C. for 10 min;\n(b) carrying out fermentation under conditions shown as table 3.\n(c) measuring the amount of Escherichia coli according to the natural standard for measuring Escherichia coli in the feed.\nThe inhibiting effect of the lactein R16 to Escherichia coli in the soybean meal is studied by adding Escherichia coli into the sterilized soybean meal."}, "[19]": {"assay": "Antioxidant capability, clearing hydrogen peroxide", "text": "as §1"}}, "note": "Like-named read-outs stand apart in the source and are kept apart here. No end group written: not given here."}
{"substance": "ENGEEE [lactein R16, ENGEEE]", "values": [{"measurement": "clearance rate", "setting": "[1]", "value": 10.11, "unit": "%"}, {"measurement": "change of total bacterial count as comparison with contrast", "setting": "[2]", "value": "no obvious changes"}, {"measurement": "total bacterial count after growing for 24 h", "setting": "[3]", "value": "about 10^8 CFU·mL^−1"}, {"measurement": "total bacterial count reduced as comparison with contrast", "setting": "[3]; 24 h", "value": 6.92, "unit": "%"}, {"measurement": "total bacterial count after growing for 24 h", "setting": "[4]", "value": "about 10^8 CFU·mL^−1"}, {"measurement": "total bacterial count reduced as comparison with contrast", "setting": "[4]; 24 h", "value": 4.03, "unit": "%"}, {"measurement": "amount of Saccharomyces cerevisiae increased as comparison with contrast", "setting": "[5]", "value": 24.50, "unit": "%"}, {"measurement": "effect on Saccharomyces cerevisiae (in words)", "setting": "[5]", "value": "a certain effect on proliferating"}, {"measurement": "effect on Lactobacillus plantarum (in words)", "setting": "[6]", "value": "a certain effect on proliferating"}, {"measurement": "Antimicrobial level", "setting": "[7]", "value": "+"}, {"measurement": "activity retained in the process of pelletizing", "setting": "[8]; pelletizing at 75-85° C. for 1-2 min", "value": "completely retained"}, {"measurement": "thermal stability", "setting": "[8]; summary statement", "value": "good"}, {"measurement": "change of antimicrobial activity", "setting": "[8]; treated at 40, 50, 60, 70 and 80° C. for 30 min, 100 mg·mL^−1", "value": "no obvious changes"}, {"measurement": "antimicrobial activity lost", "setting": "[8]; treated at 90° C. for 30 min", "value": 21.95, "unit": "%"}, {"measurement": "antimicrobial activity lost", "setting": "[8]; treated at 100° C. for 30 min", "value": 49.47, "unit": "%"}, {"measurement": "antimicrobial activity lost", "setting": "[8]; treated at 121° C. for 15 min (high-pressure sterilization)", "value": 59.98, "unit": "%"}, {"measurement": "pH at which the antimicrobial activity reaches the maximum", "setting": "[9]; 100 mg·mL^−1, pH 1.0-10.0, 37° C. water bath 2 h, then pH 4.5, inhibition of Escherichia coli", "value": "3.0-5.0"}, {"measurement": "residual activity", "setting": "[9]; pH 6.0-8.0, 37° C. 2 h, inhibition of Escherichia coli", "value": "about 75%"}, {"measurement": "pH stability", "setting": "[9]; summary statement", "value": "good"}, {"measurement": "clearance rate", "setting": "[10]", "value": 79.42, "unit": "%"}, {"measurement": "Antimicrobial level", "setting": "[11]", "value": "++"}, {"measurement": "antimicrobial activity (in words)", "setting": "[11]", "value": "relatively strong antimicrobial activity"}, {"measurement": "Antimicrobial level", "setting": "[12]", "value": "++"}, {"measurement": "antimicrobial activity (in words)", "setting": "[12]", "value": "relatively strong antimicrobial activity"}, {"measurement": "Antimicrobial level", "setting": "[13]", "value": "++"}, {"measurement": "antimicrobial activity (in words)", "setting": "[13]", "value": "relatively strong antimicrobial activity"}, {"measurement": "Antimicrobial level", "setting": "[14]", "value": "+++"}, {"measurement": "antimicrobial activity (in words)", "setting": "[14]", "value": "strongest"}, {"measurement": "MIC", "setting": "[15]", "value": 6400, "unit": "µg/mL"}, {"measurement": "clearance rate", "setting": "[16]", "value": 70.13, "unit": "%"}, {"measurement": "MIC", "setting": "[17]; ATCC 6538", "value": 3400, "unit": "µg/mL"}, {"measurement": "MIC", "setting": "[17]; LB medium, 37° C., 18-24 h", "value": 3200, "unit": "µg/mL"}, {"measurement": "amount of Escherichia coli after fermentation", "setting": "[18]; 0.512 g in 40 g soybean meal, material-to-liquid ratio 1:0.8, 37° C., 1380·100 g^−1 before fermentation", "value": "123 ·100 g^−1"}, {"measurement": "removal rate", "setting": "[18]; material-to-liquid ratio 1:0.8, 0.512 g in 40 g soybean meal", "value": 33.44, "unit": "%"}, {"measurement": "removal rate", "setting": "[18]; material-water ratio 1:0.12, 0.512 g in 40 g soybean meal", "value": 56.64, "unit": "%"}, {"measurement": "clearance rate", "setting": "[19]", "value": 25.65, "unit": "%"}]}
